# Laboratory results: patent US20250332159A1, “REACTIVE OXYGEN SPECIES MODULATION THROUGH BINDING OF LIGANDS AT THE NQ-BINDING SITE OF THE RESPIRATORY COMPLEX III” (University of Health Sciences & Pharmacy in St. Louis, priority 2024, published 2025)
# pIC50: −log10 of the molar value.
# Tests used:
# Type in all cases: cell-based, human
# MCF7 cells [1] = assay: Total cellular ROS measurement (CellRox Green); conditions: 25 μM, 6-8 hours
# Protocol: (§1) The MCF7 breast cancer cell line (ATCC, HTB-22) was purchased from American Type Culture Collection (ATCC, Manassas, VA) and propagated in Eagle's minimum essential medium (EMEM, ATCC) supplemented with 10% FBS (Thermo Scientific), 1% L-glutamine and 1% penicillin/streptomycin (ATCC) in a humidified incubator at 37° C. and 5% CO2. Cells were harvested and seeded into a 96-well black plate at a cell density of 25,000 cells/well and left overnight to adhere. Afterward, cells were treated with 25 μM of the 14 purchased ligands from MolPort (Riga, Latvia), positive control (i.e., doxorubicin), and negative control (i.e., DMSO) and left in the incubator for 6-8 hours. For the Qo and Qi inhibition experiments, 25 μM of myxothiazol or antimycin A (Sigma-Aldrich), respectively were also incubated. Negative controls for the inhibition experiments were composed of DMSO and either 25 μM of myxothiazol or antimycin A. Afterward, cells were washed and stained for 30 minutes at 37° C. and 5% CO2 in the dark using the CellRox Green (Invitrogen, USA) or the MitoSOX Red Assay Kit (Invitrogen, USA). Afterward, cells were washed, and total cellular ROS or mitochondrial superoxide anion levels were measured using the Synergy Biotek UV/Vis/fluorescence microplate reader with excitation/emission wavelengths of 490/525 nm or 396/610 nm, respectively. Nuclei were labeled using NucBlue Live ReadyProbes Reagent (Hoechst 33342). All experiments were performed in at least triplicate and repeated for at least three independent trials.
# MCF7 cells [2] = assay: Qo and Qi inhibition experiments: mitochondrial superoxide anion with myxothiazol or antimycin A; conditions: for mitochondrial superoxide anion level, ligand with antimycin (ANT): 25 μM ligand + 25 μM ANT (Qi site inhibitor); for mitochondrial superoxide anion level, ligand with myxothiazol (MYX): 25 μM ligand + 25 μM MYX (Qo site inhibitor)
# Protocol: as §1
# MCF7 cells [3] = assay: MTS cytotoxicity assay; conditions: MCF7 cell line, 48 hours
# Source text: MCF7 cells were harvested and seeded at a cell density of 5,000 cells/well into a 96-well white plate and left overnight to adhere. […] Then, cells were washed and assayed for cytotoxicity using CellTiter 96® AQueous One Solution Cell Proliferation Assay kit (MTS) (Promega, USA), which is a colorimetric assay containing colorless tetrazolium compound that is bio-reduced by NADPH or NADH produced by dehydrogenase enzymes in metabolically active cells into a colored formazan product that can be measured at wavelength 490 nm using the Synergy Biotek plate reader. Sequential treatment was performed by incubating the overnight attached MCF7 cells with 25 μM of MH-200102 for 24 hours. Then, the cells were washed once and incubated with different concentrations of MH-101015 for another 24 hours. Then, the cells were assayed for cytotoxicity, as mentioned above.
Structure (SMILES),total ROS level compared to negative control (DMSO) (MCF7 cells [1]),"mitochondrial superoxide anion level, ligand with antimycin (ANT) (MCF7 cells [2])","mitochondrial superoxide anion level, ligand with myxothiazol (MYX) (MCF7 cells [2])",cytotoxic activity (MCF7 cells [3]; 0-100 μM),"pIC50 (MCF7 cells [3]; Homo sapiens, single treatment, read-out: cytotoxic activity IC50)"
O=C(O)c1cccc2ncccc12 [MH-01015],total ROS down-regulating activity,ANT blocks any ROS down-regulating activity,MYX blocks any ROS down-modulating activity,–,–
Cc1cc(I)ccc1NC(=O)c1ccc(Br)c(N)c1 [MH-04504],modest total ROS upregulating activity,–,MYX blocks the ROS up-modulating activity,modest cytotoxic activity,–
COCc1cnc2n1CCN(C(=O)c1cscn1)[C@H]2C [MH-131013],total ROS down-regulating activity,ANT blocks any ROS down-regulating activity,MYX blocks any ROS down-modulating activity,–,–
O=C(CSc1ccccc1)NCCCn1ccnc1 [MH-200102],twofold,–,MYX blocks the ROS up-modulating activity,–,4.84
